Results: patent publication US7968291B2, “RNA bioassay” (The Hamner Institute for Health Sciences, priority 2002, dated 2011)
“Also recorded” adds a separate entry of the source.

System: Sprague_Dawley/Crl:CD (SD)IGS BR rats
Assay: Liver histopathology of treated rats
Format: in vivo, rat
Details: 1400 mg/kg oral gavage, 24 hours
Method: Four control rats were administered a quantity of methylcellulose vehicle (no acetaminophen) having a volume approximately equal to that received by treated rats. After 24 hours, all rats were euthanized and livers were collected by necropsy. At necropsy, blood samples were collected via the vena cava (approximately 0.5 ml) in microtainer tubes. All livers were then fixed in 10% neutral buffered formalin and processed for histopathology by trimming trimmed, dehydrating, embedding in paraffin, sectioning, mounting on glass slides, and staining with hematoxylin and eosin stains.
Microscopically, there was a moderate centrilobular degeneration which was multifocal in two of the animals and was characterized by hepatocellular degeneration and necrosis, edema fluid, hemorrhages, and infiltration of mononuclear cells and occasional neutrophils in the other two animals. The severity and distribution of the microscopic lesions correlated well with the measured increases in ALT, AST, 5′NT, and albumin RT-PCR.

With `CC(=O)Nc1ccc(O)cc1` [acetaminophen] the “Histopathological analysis of liver” value (four rats) was “moderate levels of damage” and the “Hepatocellular Degeneration” value (individual rats (animals 1-4)) was “Diffuse; also recorded: Multifocal”.
